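Tested at 5 concentrations; 48 h exposure; 96-well plates; endpoints linearly interpolated, else capped at highest concentration. TGI: total growth inhibition.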

One test relates to MDA-N. The test is described as follows: NCI anticancer screen, dose series, 48 h.
Regarding `COc1cc2c(cc1O)c(O)cc1c3cc(OC)c(OC)cc3c[n+](C)c21`, the TGI was 35.7 µM.
Molecule `C=C(C)C1CCC(C(=O)O)CC1` (stereo not drawn) yielded a TGI of more than 100 µM.
In turn, `C=CC[C@]1(/C=N/O)CN(S(=O)(=O)CC[Si](C)(C)C)C[C@H]2CC=CC[C@H]21` showed a TGI of 42.8 µM.
The molecule `O=C1NC(=S)N/C1=C\c1cccs1` had a TGI of more than 100 µM.
The same measure, in the same setting: the same measure for `CC12C=CC(C)(C3C(=O)C4C(C(=O)C31)C1(C)C=CC4(C)S1=O)S2=O` (stereo not drawn): more than 100 µM.

The subject of a further test is LOX IMVI melanoma. The test can be described thus: NCI anticancer screen, dose series, 48 h.
As for `CC1(C)OCN(c2ccc(N3CCOCC3)cc2)Cn2c1nc1ccccc12`, the TGI was more than 100 µM.
On the same count and under the same terms, the same measure for `CN(C)/C=C/C(=CC=[N+](C)C)/C=C/N(C)C`: more than 100 µM; for `N#C[S-].[La+3].c1cnc2c(c1)ccc1cccnc12.c1cnc2c(c1)ccc1cccnc12.c1cnc2c(c1)ccc1cccnc12`: 13.3 µM.
Still for that read-out and setting: the same measure for `COc1cc2c(cc1O)c(O)cc1c3cc(OC)c(OC)cc3c[n+](C)c21`: more than 55.2 µM; for `C/C(=N\NS(=O)(=O)c1ccc(C)cc1)c1ccccn1`: more than 100 µM.
The same measure, in the same setting: the result for `Cc1cc(C)c2c(=O)cc(-c3cccc4ccccc34)[nH]c2n1` reads 26.4 µM.
Regarding `C=C(C)C1CCC(C(=O)O)CC1` (stereo not drawn), the TGI was more than 100 µM.
Still for that read-out and setting: the same measure for `C=CC[C@]1(/C=N/O)CN(S(=O)(=O)CC[Si](C)(C)C)C[C@H]2CC=CC[C@H]21`: 40.4 µM; for `O=C1NC(=S)N/C1=C\c1cccs1`: more than 100 µM; for `CCN1C[C@]2(C)CC[C@H](O)C34C1C(C[C@@H]32)[C@@]1(O)CC[C@H]2C[C@@H]4[C@@H]1[C@H]2O`: more than 100 µM.
Same read-out and setting: the result for `CC12C=CC(C)(C3C(=O)C4C(C(=O)C31)C1(C)C=CC4(C)S1=O)S2=O` (stereo not drawn) reads more than 100 µM; that for `CCC(CC)NC1=C(NC(C)=O)C(=O)c2ccccc2C1=O`, more than 50 µM.
The same measure, in the same setting: the same measure for `O=C(NN1C(=O)C(Cl)C1c1ccc(Cl)cc1)c1c(Cl)c(Cl)c(Cl)c(Cl)c1-c1nc2ccccc2[nH]1` (stereo not drawn): 32.5 µM; for `CC1(c2cccc(C3CC4(CCC3=O)OCCCCO4)c2)OCCO1` (stereo not drawn): more than 100 µM.

The next test deals with SF-268 CNS. The test can be described thus: NCI anticancer screen, dose series, 48 h.
Molecule `CC1(C)OCN(c2ccc(N3CCOCC3)cc2)Cn2c1nc1ccccc12` returned a TGI of more than 100 µM.
On the same count and under the same terms, the result for `CN(C)/C=C/C(=CC=[N+](C)C)/C=C/N(C)C` reads more than 100 µM; that for `N#C[S-].[La+3].c1cnc2c(c1)ccc1cccnc12.c1cnc2c(c1)ccc1cccnc12.c1cnc2c(c1)ccc1cccnc12`, 18.9 µM; that for `CC1(C)C2CCC1(C)C(N/C(Sc1ccccc1)=C(/C(Cl)=C(Cl)Cl)[N+](=O)[O-])C2` (stereo not drawn), 24.4 µM.
On the same count and under the same terms, the result for `COc1cc2c(cc1O)c(O)cc1c3cc(OC)c(OC)cc3c[n+](C)c21` reads more than 100 µM; that for `C/C(=N\NS(=O)(=O)c1ccc(C)cc1)c1ccccn1`, more than 100 µM.
On the same count and under the same terms, the result for `Cc1cc(C)c2c(=O)cc(-c3cccc4ccccc34)[nH]c2n1` reads more than 48 µM; that for `O=S(Cc1ccccc1)c1nc2ccccc2nc1-c1cccs1` (stereo not drawn), 51.4 µM.
With `C=C(C)C1CCC(C(=O)O)CC1` (stereo not drawn), the TGI was more than 100 µM.
Still for that read-out and setting: the result for `C=CC[C@]1(/C=N/O)CN(S(=O)(=O)CC[Si](C)(C)C)C[C@H]2CC=CC[C@H]21` reads more than 100 µM; that for `O=C1NC(=S)N/C1=C\c1cccs1`, more than 100 µM; that for `CCN1C[C@]2(C)CC[C@H](O)C34C1C(C[C@@H]32)[C@@]1(O)CC[C@H]2C[C@@H]4[C@@H]1[C@H]2O`, more than 100 µM.
Same read-out and setting: the result for `CC12C=CC(C)(C3C(=O)C4C(C(=O)C31)C1(C)C=CC4(C)S1=O)S2=O` (stereo not drawn) reads more than 100 µM; that for `CCC(CC)NC1=C(NC(C)=O)C(=O)c2ccccc2C1=O`, more than 50 µM.
Turning to `O=C(NN1C(=O)C(Cl)C1c1ccc(Cl)cc1)c1c(Cl)c(Cl)c(Cl)c(Cl)c1-c1nc2ccccc2[nH]1` (stereo not drawn), the TGI is more than 100 µM.
Same read-out and setting: the result for `CC1(c2cccc(C3CC4(CCC3=O)OCCCCO4)c2)OCCO1` (stereo not drawn) reads more than 100 µM.

Another test deals with HCC-2998 colon. The test is described as follows: NCI anticancer screen, dose series, 48 h.
`CC1(C)OCN(c2ccc(N3CCOCC3)cc2)Cn2c1nc1ccccc12` gave a TGI of more than 100 µM.
As to `CN(C)/C=C/C(=CC=[N+](C)C)/C=C/N(C)C`, the TGI was more than 100 µM.
Molecule `N#C[S-].[La+3].c1cnc2c(c1)ccc1cccnc12.c1cnc2c(c1)ccc1cccnc12.c1cnc2c(c1)ccc1cccnc12` had a TGI of 18.8 µM.
On the same count and under the same terms, the same measure for `CC1(C)C2CCC1(C)C(N/C(Sc1ccccc1)=C(/C(Cl)=C(Cl)Cl)[N+](=O)[O-])C2` (stereo not drawn): 28.5 µM; for `COc1cc2c(cc1O)c(O)cc1c3cc(OC)c(OC)cc3c[n+](C)c21`: more than 100 µM.
Still for that read-out and setting: the same measure for `C/C(=N\NS(=O)(=O)c1ccc(C)cc1)c1ccccn1`: more than 100 µM; for `Cc1cc(C)c2c(=O)cc(-c3cccc4ccccc34)[nH]c2n1`: 7.37 µM.
Same read-out and setting: the result for `O=S(Cc1ccccc1)c1nc2ccccc2nc1-c1cccs1` (stereo not drawn) reads 26.1 µM; that for `C=C(C)C1CCC(C(=O)O)CC1` (stereo not drawn), more than 100 µM.
In the case of `C=CC[C@]1(/C=N/O)CN(S(=O)(=O)CC[Si](C)(C)C)C[C@H]2CC=CC[C@H]21`, the TGI came out at 31.9 µM.
Still for that read-out and setting: the result for `O=C1NC(=S)N/C1=C\c1cccs1` reads more than 100 µM.
Still for that read-out and setting: the same measure for `CC12C=CC(C)(C3C(=O)C4C(C(=O)C31)C1(C)C=CC4(C)S1=O)S2=O` (stereo not drawn): more than 100 µM; for `CCC(CC)NC1=C(NC(C)=O)C(=O)c2ccccc2C1=O`: more than 50 µM; for `O=C(NN1C(=O)C(Cl)C1c1ccc(Cl)cc1)c1c(Cl)c(Cl)c(Cl)c(Cl)c1-c1nc2ccccc2[nH]1` (stereo not drawn): 30.9 µM.
Molecule `CC1(c2cccc(C3CC4(CCC3=O)OCCCCO4)c2)OCCO1` (stereo not drawn) yielded a TGI of more than 100 µM.

Another test relates to SW-620 colon. The test is described as follows: NCI anticancer screen, dose series, 48 h.
In the case of `CC1(C)OCN(c2ccc(N3CCOCC3)cc2)Cn2c1nc1ccccc12`, the TGI is more than 100 µM.
In turn, `CN(C)/C=C/C(=CC=[N+](C)C)/C=C/N(C)C` showed a TGI of more than 100 µM.
As to `N#C[S-].[La+3].c1cnc2c(c1)ccc1cccnc12.c1cnc2c(c1)ccc1cccnc12.c1cnc2c(c1)ccc1cccnc12`, the TGI stood at 27.1 µM.

The values are drawn from PubChem BioAssay (NCI).
